This note sets out measurements from patent US20110009453A1, “S1P3 RECEPTOR INHIBITORS FOR TREATING INFLAMMATION” (priority 2008, published 2011).

Where two headings read alike, the source gives them in different places.

One test has as its target S1P1 receptor (Homo sapiens, UniProt P21453). Description: FLIPR assay (Ca2+ response), S1P1 receptor. In kind it is cell-based.
In another test the target is T1, human S1P3 receptor (Homo sapiens, UniProt Q99500).
T1 construct: expressed in transfected cells
In words: FLIPR assay in T24 cells stably expressing the human S1P3 receptor. As to conditions: for inhibition at 10 µM: T-24, read-out: S1P3 percent inhibition (in parenthesis). Type of test: cell-based. Here is the method:
Another method of determining if a compound is an S1P3 receptor inhibitor is with a FLIPR assay. An example of this method is described in U.S. patent application Ser. No. 11/675,168, the contents of which are incorporated herein by reference. According to that application, compounds may be assessed for their ability to activate or block activation of the human S1P3 receptor in T24 cells stably expressing the human S1P3 receptor. In this assay ten thousand cells/well are plated into 384-well poly-D-lysine coated plates one day prior to use. The growth media for the S1P3 receptor expressing cell line is McCoy's 5A medium supplemented with 10% charcoal-treated fetal bovine serum (FBS), 1% antibiotic-antimycotic and 400 μg/ml geneticin. On the day of the experiment, the cells are washed twice with Hank's Balanced Salt Solution supplemented with 20 mM HEPES (HBSS/Hepes buffer). The cells are then dye loaded with 2 uM Fluo-4 diluted in the HBSS/Hepes buffer with 1.25 mM Probenecid and incubated at 37° C. for 40 minutes. Extracellular dye is removed by washing the cell plates four times prior to placing the plates in the FLIPR (Fluorometric Imaging Plate Reader, Molecular Devices). Ligands are diluted in HBSS/Hepes buffer and prepared in 384-well microplates. The positive control, S1P, is diluted in HBSS/Hepes buffer with 4 mg/ml fatty acid free bovine serum albumin. The FLIPR transfers 12.5 μl from the ligand microplate to the cell plate and takes fluorescent measurements for 75 seconds, taking readings every second, and then for 2.5 minutes, taking readings every 10 seconds. Drugs are tested over the concentration range of to 0.61 nM to 10,000 nM. Data for Ca^+2 responses is obtained in arbitrary fluorescence units and not translated into Ca^+2 concentrations. IC50 values are determined through a […] analysis using the Levenburg Marquardt algorithm.
Examples of such compounds include the following. […] The EC50 and IC50 values expressed in the following table were obtained in the FLIPR assay described above. EC50 or IC50 values are stated first, followed by percent efficacy or percent inhibition stated in parenthesis. In this table and the next, percent efficacy is defined as percent of receptor activity induced by a test compound at the highest dose tested (10 μM) relative to the receptor activity induced by 5 nM sphingosine-1-phosphate, and percent inhibition is defined as percent of receptor activity induced by 5 nM sphingosine-1-phosphate that is inhibited by a test compound at the highest dose tested (10 μM). “NA” means that no activity was detected at highest dose tested; “ND” means not determined.
The IC50 values expressed below were obtained in the FLIPR assay described above. IC50 values are stated first (except as otherwise noted), followed by percent efficacy or percent inhibition in parenthesis.

Where [1] appears, read: tested 0.61 nM to 10,000 nM, NA = no activity detected at highest dose tested, read-out: S1P1 (EC50).
Where [2] appears, read: FLIPR, values in nM, read-out: S1P3 (IC50).
Where [3] appears, read: percent of activity induced by 5 nM sphingosine-1-phosphate inhibited at highest dose tested (10 μM).
The mark [4] stands for this setting: FLIPR, values given in μM, read-out: S1P3 (IC50).
Setting [5] is: FLIPR, table of additional selective S1P3 inhibitors, read-out: S1P3 (IC50).
Setting [6] is: percent of activity induced by 5 nM sphingosine-1-phosphate inhibited at 10 μM, table of additional selective S1P3 inhibitors.

Chain of S1P1 receptor (P21453 whole entry): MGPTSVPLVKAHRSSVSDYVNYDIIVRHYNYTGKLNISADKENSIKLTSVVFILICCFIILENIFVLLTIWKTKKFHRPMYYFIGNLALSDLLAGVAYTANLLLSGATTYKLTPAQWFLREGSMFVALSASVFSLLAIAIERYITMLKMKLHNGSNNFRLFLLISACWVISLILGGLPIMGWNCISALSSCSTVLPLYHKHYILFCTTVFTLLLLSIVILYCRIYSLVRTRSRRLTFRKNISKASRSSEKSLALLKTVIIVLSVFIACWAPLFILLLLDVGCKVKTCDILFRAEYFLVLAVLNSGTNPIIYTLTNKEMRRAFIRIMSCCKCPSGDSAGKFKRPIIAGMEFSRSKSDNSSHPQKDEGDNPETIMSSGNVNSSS
T1 sequence (Q99500 whole entry): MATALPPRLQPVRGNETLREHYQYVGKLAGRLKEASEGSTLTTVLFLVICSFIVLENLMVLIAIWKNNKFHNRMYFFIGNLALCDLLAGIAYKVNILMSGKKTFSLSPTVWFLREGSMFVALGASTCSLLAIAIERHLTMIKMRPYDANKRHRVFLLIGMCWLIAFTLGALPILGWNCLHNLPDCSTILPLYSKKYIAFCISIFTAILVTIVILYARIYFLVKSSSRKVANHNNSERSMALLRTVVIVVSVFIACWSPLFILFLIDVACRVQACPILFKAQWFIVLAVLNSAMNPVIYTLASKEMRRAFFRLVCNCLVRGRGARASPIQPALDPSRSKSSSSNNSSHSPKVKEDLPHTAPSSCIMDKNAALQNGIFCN

With `CCCc1ccc(-c2ccc(CNCCCP(=O)(O)O)nc2-c2ccccc2)cc1` [Compound 154], the EC50 – broadly, the concentration needed to bring the measured effect to its halfway point – on S1P1 receptor (setting [1]) came out at 114 nM. Further, at human S1P3 receptor (setting [2]), the IC50 – broadly, the concentration that gives 50% inhibition – came to 319 nM. The inhibition (in general, the percentage by which the read-out fell short of the control) at 10 µM at human S1P3 receptor (setting [3]) was determined as 98%.
As for `CCc1ccc(-c2ccc(CNCCCP(=O)(O)O)nc2-c2ccncc2)cc1` [Compound 151], the IC50 on human S1P3 receptor (setting [4]) was determined as 1100 nM. Moreover, the inhibition at 10 µM on human S1P3 receptor (setting [3]) came out at 95%.
`O=C(NCc1ccc(F)c(F)c1)c1c(C2CCCC2)n(Cc2ccccc2)c2ccc(O)cc12`: the IC50 at human S1P3 receptor (setting [5]) was 31 nM. In addition, the inhibition at 10 µM on human S1P3 receptor (setting [6]) amounted to 100%.
For `CCc1ccc(-c2ccc(CNCCCP(=O)(O)O)nc2-c2ccccc2)cc1` [Compound 148], the EC50 at S1P1 receptor (setting [1]) came out at 170 nM. Besides, the IC50 on human S1P3 receptor (setting [2]) worked out at 319 nM. Besides, the inhibition at 10 µM on human S1P3 receptor (setting [3]) stood at 98%.
As to `O=P(O)(O)CCCNCc1ccc(-c2ccccc2)c(-c2ccccc2)n1` [Compound 146], the IC50 at human S1P3 receptor (setting [4]) is 1600 nM. At human S1P3 receptor (setting [3]), the inhibition at 10 µM stood at 83%.
In turn, `CC(C)c1c(C(=O)NCc2ccc(F)c(F)c2)c2cc(O)ccc2n1Cc1ccccc1` had a 50% inhibitory concentration (IC50) at human S1P3 receptor of 35 nM. The inhibition at 10 µM at human S1P3 receptor (setting [6]) came out at 98%.
Consider `CCc1ccc(-c2ccc(CNCCP(=O)(O)O)nc2-c2ccccc2)cc1` [Compound 149], for which the concentration for half-maximal inhibition (IC50) at human S1P3 receptor (setting [4]) stood at 1800 nM. For the same compound, the inhibition at 10 µM on human S1P3 receptor (setting [3]) was determined as 99%.
Turning to `CCc1ccc(-c2ccc(CNCCCP(=O)(O)O)nc2-c2ccccc2)cc1` [drawing 165], the EC50 on S1P1 receptor (table of additional selective S1P3 inhibitors, read-out: S1P1 EC50 (noted in IC50 column)) was determined as 170 nM. The IC50 on human S1P3 receptor (setting [5]) was found to be 319 nM. The “S1P3 percent inhibition (in parenthesis)” value at human S1P3 receptor (setting [6]) amounted to 98%.
For the compound `Cc1ccc(-c2ccc(CNCCCP(=O)(O)O)nc2-c2ccccc2)cc1` [Compound 147], on S1P1 receptor (setting [1]), the EC50 came to 121 nM. Moreover, the IC50 on human S1P3 receptor (setting [2]) is 231 nM. For the same compound, the inhibition at 10 µM on human S1P3 receptor (setting [3]) worked out at 98%.
On to `CC(C)Oc1ccc2c(C(=O)NCc3ccc(F)c(F)c3)c(C(C)C)n(Cc3ccccc3)c2c1`, for which the IC50 against human S1P3 receptor is 6 nM. The inhibition at 10 µM on human S1P3 receptor (setting [6]) was determined as 100%.
In the case of `CCc1ccc(-c2ccc(CNCCCCP(=O)(O)O)nc2-c2ccccc2)cc1` [Compound 153], the inhibition at 10 µM on human S1P3 receptor (setting [3]) worked out at 30%.
Take `CCc1ccc(-c2ccc(CNCCP(=O)(O)O)nc2-c2ccncc2)cc1` [Compound 152]: the IC50 at human S1P3 receptor (setting [4]) amounted to 1800 nM. Also, the inhibition at 10 µM at human S1P3 receptor (setting [3]) came out at 68%.
The corresponding values for `CCc1ccc(-c2ccc(COCCCP(=O)(O)O)nc2-c2ccccc2)cc1` [Compound 155] are 4000 nM and 27%.
Turning to `CC(C)c1c(C(=O)NCc2ccc(F)c(F)c2)c2ccccc2n1Cc1ccccc1`, at human S1P3 receptor, the IC50 is 209 nM. For the same compound, the inhibition at 10 µM on human S1P3 receptor (setting [6]) was determined as 100%.
Turning to `O=C(NCc1ccc(F)c(F)c1)c1c(C2CCCC2)n(Cc2ccccn2)c2ccc(O)cc12`, the IC50 at human S1P3 receptor (setting [5]) turned out to be 17 nM. Besides, the inhibition at 10 µM on human S1P3 receptor (setting [6]) is 99%.
Regarding `CCCOc1ccc2c(C(=O)NCc3ccc(F)c(F)c3)c(C(C)C)n(Cc3ccccc3)c2c1`, the midpoint of inhibition against human S1P3 receptor, the IC50, lay at 5 nM. Besides, the inhibition at 10 µM at human S1P3 receptor (setting [6]) came out at 100%.
As to `Cc1ccc(-c2ccc(COCCCP(=O)(O)O)nc2-c2ccccc2)cc1` [Compound 156], the IC50 on human S1P3 receptor (setting [4]) stood at 1900 nM. In addition, the inhibition at 10 µM at human S1P3 receptor (setting [3]) was 11%.
Regarding `O=P(O)(O)CCCNCc1ccc(-c2ccc(C(F)(F)F)cc2)c(-c2ccccc2)n1` [Compound 150], the inhibition at 10 µM on human S1P3 receptor (setting [3]) is 95%.
As for `CCOc1ccc2c(C(=O)NCc3ccc(F)c(F)c3)c(C(C)C)n(Cc3ccccc3)c2c1`, the midpoint of inhibition against human S1P3 receptor, the IC50, lay at 19 nM. The inhibition at 10 µM at human S1P3 receptor (setting [6]) was found to be 100%.
